Reference: ChEMBL document CHEMBL4043087 (J Med Chem, 2017)

Experiments:
Sus scrofa [1] = test: Anesthetic activity in mini pig assessed as anesthetic duration time at 22.5 mg/kg, administered as bolus dose; assay type: functional
[2] = Toxicity in mouse; assay type: organism-based; details: in vivo
Sus scrofa [3] = test: Anesthetic activity in mini pig assessed as onset time for loss of righting reflex at 22.5 mg/kg, administered as bolus dose; assay type: functional
Canis familiaris [4] = test: Anesthetic activity in Beagle dog assessed as recovery time at 75 mg/kg, administered as bolus dose; assay type: functional, Canis lupus familiaris
[5] = Therapeutic index, ratio of LD50 for toxicity in mouse to ED50 for anesthetic effect in mouse
Mus musculus = test: Anesthetic activity in mouse model assessed as loss of righting reflex; assay type: functional
Canis familiaris [6] = test: Anesthetic activity in Beagle dog assessed as onset time for loss of righting reflex at 75 mg/kg, administered as bolus dose; assay type: functional, Canis lupus familiaris
[7] = Therapeutic index, ratio of LD50 for toxicity in Sprague-Dawley rat to ED50 for anesthetic effect in Sprague-Dawley rat; details: read-out: Ratio LD50/ED50
Sus scrofa [8] = test: Anesthetic activity in mini pig assessed as recovery time at 22.5 mg/kg, administered as bolus dose; assay type: functional
[9] = Toxicity in Sprague-Dawley rat; details: in vivo
Rattus norvegicus = test: Anesthetic activity in Sprague-Dawley rat assessed as loss of righting reflex; assay type: functional
Canis familiaris [10] = test: Anesthetic activity in Beagle dog assessed as anesthetic duration time at 75 mg/kg, administered as bolus dose; assay type: functional, Canis lupus familiaris
Sus scrofa [11] = test: Anesthetic activity in mini pig assessed as recovery time at 4 mg/kg, administered as bolus dose; assay type: functional
Canis familiaris [12] = test: Anesthetic activity in Beagle dog assessed as recovery time at 12.5 mg/kg, administered as bolus dose; assay type: functional, Canis lupus familiaris
Canis familiaris [13] = test: Anesthetic activity in Beagle dog assessed as anesthetic duration time at 12.5 mg/kg, administered as bolus dose; assay type: functional, Canis lupus familiaris
Sus scrofa [14] = test: Anesthetic activity in mini pig assessed as onset time for loss of righting reflex at 4 mg/kg, administered as bolus dose; assay type: functional
Sus scrofa [15] = test: Anesthetic activity in mini pig assessed as anesthetic duration time at 4 mg/kg, administered as bolus dose; assay type: functional
Canis familiaris [16] = test: Anesthetic activity in Beagle dog assessed as onset time for loss of righting reflex at 12.5 mg/kg, administered as bolus dose; assay type: functional, Canis lupus familiaris
Sus scrofa [17] = test: Anesthetic activity in mini pig assessed as onset time for loss of righting reflex at 5 mg/kg, administered as bolus dose; assay type: functional
Sus scrofa [18] = test: Anesthetic activity in mini pig assessed as anesthetic duration time at 5 mg/kg, administered as bolus dose; assay type: functional
Sus scrofa [19] = test: Anesthetic activity in mini pig assessed as recovery time at 5 mg/kg, administered as bolus dose; assay type: functional
Canis familiaris [20] = test: Anesthetic activity in Beagle dog assessed as onset time for loss of righting reflex at 25 mg/kg, administered as bolus dose; assay type: functional, Canis lupus familiaris
Canis familiaris [21] = test: Anesthetic activity in Beagle dog assessed as anesthetic duration time at 25 mg/kg, administered as bolus dose; assay type: functional, Canis lupus familiaris
Canis familiaris [22] = test: Anesthetic activity in Beagle dog assessed as recovery time at 25 mg/kg, administered as bolus dose; assay type: functional, Canis lupus familiaris

In the case of CC(C)c1cccc(C(C)C)c1OCOP(=O)([O-])[O-].[Na+].[Na+] [FOSPROPOFOL DISODIUM], the Time (Sus scrofa [1]) is reported as 72.6 min, the LD50 [2] is reported as 220 mg/kg and the Time (Sus scrofa [3]) is reported as 1.6 min. The Time (Canis familiaris [4]) was 7.3 min, the “Ratio LD50/ED50” value [5] was 2.3 and the ED50 (Mus musculus) was 95 mg/kg. The Time (Canis familiaris [6]) was 2.1 min, the selectivity ratio [7] was 4.61 and the Time (Sus scrofa [8]) was 6 min. For the same molecule, the LD50 [9] was 189 mg/kg, the ED50 (Rattus norvegicus) was 41 mg/kg and the Time (Canis familiaris [10]) was 80.4 min.

With C[C@@H](c1cccc([C@H](C)C2CC2)c1OCOP(=O)([O-])[O-])C1CC1.[Na+].[Na+] the LD50 [2] was 42.5 mg/kg, the “Ratio LD50/ED50” value [5] was 3.6 and the Time (Sus scrofa [11]) was 9.6 min. For the same molecule, the ED50 (Mus musculus) was 11.7 mg/kg, the selectivity ratio [7] was 5.51 and the Time (Canis familiaris [12]) was 3.3 min. It also gave an LD50 [9] of 40.4 mg/kg, a Time (Canis familiaris [13]) of 70.2 min and an ED50 (Rattus norvegicus) of 7.34 mg/kg. For the same molecule, the Time (Sus scrofa [14]) was 3 min, the Time (Sus scrofa [15]) was 65.8 min and the Time (Canis familiaris [16]) was 0.9 min.

With CC(C)c1cccc([C@H](C)C2CC2)c1OCOP(=O)([O-])[O-].[Na+].[Na+] the LD50 [2] was 86.5 mg/kg, the “Ratio LD50/ED50” value [5] was 4.2 and the Time (Sus scrofa [17]) was 1.6 min. It also gave a Time (Sus scrofa [18]) of 68.2 min, an ED50 (Mus musculus) of 20.4 mg/kg and a selectivity ratio [7] of 4.74. The Time (Sus scrofa [19]) was 4.8 min, the Time (Canis familiaris [20]) was 0.7 min and the ED50 (Rattus norvegicus) was 12.9 mg/kg. The Time (Canis familiaris [21]) was 72.2 min and the Time (Canis familiaris [22]) was 11.2 min.
